Legend:
human neutrophils [1] = assay: Superoxide anion (O2˙-) generation in fMLF/CB-activated human neutrophils (SOD-inhibitable ferricytochrome c reduction); format: cell-based; details: FMLP/CB-induced human neutrophils, mean ± S.E.M. (n = 3-5); for IC50 / inhibition at 10 µM: Neutrophil; for IC50: read-out: Superoxide Anion IC50; for inhibition at 10 µM / Superoxide Anion Inhibition %: at 10 µM concentration
Experimental: (§1) Human neutrophils were obtained in lipopolysaccharide-free conditions by means of dextran sedimentation and Ficoll centrifugation.
O2˙^- production was determined based on the SOD-inhibitable reduction of ferricytochrome c. Briefly, neutrophils (6 × 10^5/mL) were treated with a candidate compound at 37 °C at various concentrations (0.001 to 10 µM) for 5 min after being supplementing with 0.5 mg/mL ferricytochrome c and 1 mM Ca^2+. Cells were then activated with fMLF (0.1 µM) for 10 min in the pre-process of cytochalasin B (CB, 1 µg/mL) for 3 min. Changes in absorbance with the reduction of ferricytochrome c at 550 nm were continuously monitored in a double-beam, six-cell positioner spectrophotometer with constant stirring (Hitachi U-3010, Tokyo, Japan). Calculations were based on the differences in the reactions with and without SOD (100 U ml^-1) divided by the extinction coefficient for the reduction of ferricytochrome c (ε = 21.1 mM^-1/10 mm).

human neutrophils [2] = assay: Elastase release in fMLF/CB-activated human neutrophils (Methoxysuccinyl-Ala-Ala-Pro-Val-p-nitroanilide substrate); format: cell-based; details: Neutrophil, FMLP/CB-induced human neutrophils, mean ± S.E.M. (n = 3-5); for IC50: read-out: Elastase Release IC50; for inhibition at 10 µM: at 10 µM concentration
Experimental: as §1
Methoxysuccinyl-Ala-Ala-Pro-Val-p-nitroanilide was employed as the elastase substrate for the determination of elastase release. Briefly, after supplementation with Methoxysuccinyl-Ala-Ala-Pro-Val-p-nitroanilide (100 µM), neutrophils (6 × 10^5/mL) were equilibrated at 37 °C for 2 min and incubated with a candidate compound at various concentrations for 5 min. Cells were then activated with fMLF (0.1 µM) for 10 min in the pre-process of CB (0.5 µg/mL) for 3 min, and changes in absorbance at 405 nm were continuously monitored to evaluate elastase release. Results are expressed as the percentage of elastase release in the drug-free control group, DMSO.

| IC50 (human neutrophils [1]) [µM] | IC50 (human neutrophils [2]) [µM] | SMILES | inhibition at 10 µM (human neutrophils [1]) [%] | inhibition at 10 µM (human neutrophils [2]) [%] | Superoxide Anion Inhibition % (human neutrophils [1]) |
| --- | --- | --- | --- | --- | --- |
| > 10 | > 10 | COc1cc(Nc2nc3ccccc3c3onc(N)c23)cc(OC)c1OC [Compound 24, 4-(3,4,5-Trimethoxyanilino)isoxazolo[4,5-c]quinolin-3-amine] | 17.1 ± 3.77 | -10.6 ± 3.81 | – |
| – | > 10 | CSc1ccc(Nc2nc3ccccc3c3onc(N)c23)cc1 [Compound 25, 4-(4-Methylthioanilino)isoxazolo[4,5-c]quinolin-3-amine] | – | 18.1 ± 3.97 | enhanced |
| 2.88 ± 0.27 | > 10 | CC(=O)c1cccc(Nc2nc3ccccc3c3onc(N)c23)c1 [Compound 26, 4-(3-Acetoylanilino)isoxazolo[4,5-c]quinolin-3-amine] | 76.2 | -4.55 ± 5.83 | – |
| > 10 | > 10 | CC(=O)c1ccc(Nc2nc3ccccc3c3onc(N)c23)cc1 [Compound 27, 4-(4-Acetoylanilino)isoxazolo[4,5-c]quinolin-3-amine] | 37.4 ± 5.43 | -9.53 ± 5.26 | – |
| 4.54 ± 1.18 | 5.77 ± 1.14 | Nc1noc2c1c(Nc1ccccc1O)nc1ccccc12 [Compound 28, 4-(2-Hydroxyanilino)isoxazolo[4,5-c]quinolin-3-amine] | 91 ± 1.69 | 77.6 ± 4.52 | – |
| 0.65 ± 0.2 | > 10 | Nc1noc2c1c(Nc1ccc(O)cc1)nc1ccccc12 [Compound 29, 4-(4-Hydroxyanilino)isoxazolo[4,5-c]quinolin-3-amine] | 91.1 ± 0.38 | 29.9 ± 6.66 | – |
| – | 6.23 ± 0.52 | Nc1noc2c1c(Nc1ccc(C(F)(F)F)cc1)nc1ccccc12 [Compound 30, 4-(4-Trifluoromethylanilino)isoxazolo[4,5-c]quinolin-3-amine] | – | 81.5 ± 6.97 | enhanced |
| > 10 | > 10 | Nc1noc2c1c(Nc1ccc(C(=O)O)cc1)nc1ccccc12 [Compound 31, 4-[(3-aminoisoxazolo[4,5-c]quinolin-4-yl)amino]benzoic acid] | 7.44 ± 4.23 | -1.4 ± 3.53 | – |
| > 10 | > 10 | Nc1noc2c1c(Nc1ccc(Cl)cc1)nc1ccccc12 [Compound 32, 4-(4-Chloroanilino)isoxazolo[4,5-c]quinolin-3-amine] | 38.6 ± 2.3 | 3.69 ± 3.42 | – |
| – | 7.24 ± 0.72 | Cc1ccc(Nc2nc3ccccc3c3onc(N)c23)cc1 [Compound 33, 4-(4-Methylanilino)isoxazolo[4,5-c]quinolin-3-amine] | – | 68 ± 5.23 | enhanced |

The remaining lines, values behind:

| SMILES | IC50 (human neutrophils [1]) [µM] | IC50 (human neutrophils [2]) [µM] | inhibition at 10 µM (human neutrophils [1]) [%] | inhibition at 10 µM (human neutrophils [2]) [%] | Superoxide Anion Inhibition % (human neutrophils [1]) |
| --- | --- | --- | --- | --- | --- |
| Cn1nc(N)c2c(Nc3ccccc3)nc3ccccc3c21 [Compound 3, 4-Anilino-l-methyl-1H-pyrazolo[4,3-c]quinolin-3-amine] | 2.39 ± 0.63 | 4.09 ± 1.02 | 93.9 ± 6.32 | 80.5 ± 2.57 | – |
| Cn1nc(N)c2c(Nc3ccc(F)cc3)nc3ccccc3c21 [Compound 4, 4-(4-Fluoroanilino)-1-methyl-1H-pyrazolo[4,3-c]quinolin-3-amine] | 1.44 ± 0.22 | 5.5 ± 1.5 | 91.2 ± 4.43 | 68 ± 6.8 | – |
| COc1ccccc1Nc1nc2ccccc2c2c1c(N)nn2C [Compound 5, 4-(2-Methoxyanilino)-1-methyl-1H-pyrazolo[4,3-c]quinolin-3-amine] | 1.37 ± 0.08 | 4.65 ± 2.57 | 90.1 ± 3.38 | 66 ± 6.51 | – |
| COc1cccc(Nc2nc3ccccc3c3c2c(N)nn3C)c1 [Compound 6, 4-(3-Methoxyanilino)-1-methyl-1H-pyrazolo[4,3-c]quinolin-3-amine] | > 10 | > 10 | 27.5 ± 5.47 | 33.4 ± 6.04 | – |
| COc1ccc(Nc2nc3ccccc3c3c2c(N)nn3C)cc1 [Compound 7, 4-(4-Methoxyanilino)-1-methyl-1H-pyrazolo[4,3-c]quinolin-3-amine] | 0.51 ± 0.17 | 3.77 ± 0.71 | 99.3 ± 1.51 | 96.7 ± 6.56 | – |
| COc1cc(Nc2nc3ccccc3c3c2c(N)nn3C)cc(OC)c1OC [Compound 8, 4-(3,4,5-Trimethoxyanilino)-1-methyl-1H-pyrazolo[4,3-c]quinolin-3-amine] | 0.8 ± 0.09 | 3.25 ± 0.08 | 98.2 ± 2.41 | 89.8 ± 6.51 | – |
| CSc1ccc(Nc2nc3ccccc3c3c2c(N)nn3C)cc1 [Compound 9, 1-Methyl-4-(4-methylthioanilino)-1H-pyrazolo[4,3-c]quinolin-3-amine] | > 10 | > 10 | 47.7 ± 3.32 | 20.8 ± 3.75 | – |
| CC(=O)c1ccc(Nc2nc3ccccc3c3c2c(N)nn3C)cc1 [Compound 10, 4-(4-Acetoylanilino)-1-methyl-1H-pyrazolo[4,3-c]quinolin-3-amine] | 1.58 | 4.63 ± 1.1 | 85.1 ± 1.66 | 57.2 | – |
| Cn1nc(N)c2c(Nc3ccccc3O)nc3ccccc3c21 [Compound 11, 4-(2-Hydroxyanilino)-1-methyl-1H-pyrazolo[4,3-c]quinolin-3-amine] | 0.73 ± 0.23 | 2.24 ± 0.91 | 93.5 ± 1.75 | 101 ± 4.5 | – |
| Cn1nc(N)c2c(Nc3cccc(O)c3)nc3ccccc3c21 [Compound 12, 4-(3-Hydroxyanilino)-1-methyl-1H-pyrazolo[4,3-c]quinolin-3-amine] | 1.89 ± 0.69 | 4.62 ± 1.74 | 93.2 ± 3.66 | 94.4 ± 8.34 | – |
| Cn1nc(N)c2c(Nc3ccc(C(F)(F)F)cc3)nc3ccccc3c21 [Compound 14, 4-(4-Trifluoromethylanilino)-1-methyl-1H-pyrazolo[4,3-c]quinolin-3-amine] | 4.56 ± 0.83 | > 10 | 63.1 ± 2.51 | 37.6 ± 6.22 | – |
| Cn1nc(N)c2c(Nc3ccc(C(=O)O)cc3)nc3ccccc3c21 [Compound 15, 4-[(3-Amino-1-methyl-1H-pyrazolo[4,3-c]quinolin-4-yl)amino]benzoic acid] | 1.83 | 3.68 ± 0.42 | 82.9 ± 2.86 | 79.4 ± 1.91 | – |
| Cn1nc(N)c2c(Nc3ccccc3S)nc3ccccc3c21 [Compound 16, 2-[(3-amino-1-methyl-1H-pyrazolo[4,3-c]quinolin-4-yl)amino]benzenethiol] | > 10 | > 10 | 4.05 ± 2.95 | -3.34 ± 1.78 | – |
| Cn1nc(N)c2c(Nc3ccc(Cl)cc3)nc3ccccc3c21 [Compound 17, 4-(4-Chloroanilino)-1-methyl-1H-pyrazolo[4,3-c]quinolin-3-amine] | 3.49 ± 1.25 | 5.28 ± 0.66 | 82.8 ± 5.36 | 75.8 ± 6.64 | – |
| Cc1ccc(Nc2nc3ccccc3c3c2c(N)nn3C)cc1 [Compound 18, 4-(4-Methylanilino)-1-methyl-1H-pyrazolo[4,3-c]quinolin-3-amine] | 5.21 ± 1.9 | > 10 | 69.7 ± 7.05 | 39.7 ± 3.83 | – |
| Nc1noc2c1c(Nc1ccccc1)nc1ccccc12 [Compound 19, 4-Anilinoisoxazolo[4,5-c]quinolin-3-amine] | > 10 | > 10 | 43.7 ± 6.43 | 5.81 ± 5.22 | – |
| Nc1noc2c1c(Nc1ccc(F)cc1)nc1ccccc12 [Compound 20, 4-(4-Fluoroanilino)isoxazolo[4,5-c]quinolin-3-amine] | 6.16 ± 1.18 | > 10 | 63.2 ± 7.76 | 10.7 ± 4 | – |
| COc1ccccc1Nc1nc2ccccc2c2onc(N)c12 [Compound 21, 4-(2-Methoxyanilino)isoxazolo[4,5-c]quinolin-3-amine] | > 10 | > 10 | 32.7 ± 4.92 | -8.32 ± 2.23 | – |
| COc1cccc(Nc2nc3ccccc3c3onc(N)c23)c1 [Compound 22, 4-(3-Methoxyanilino)isoxazolo[4,5-c]quinolin-3-amine] | 6.53 ± 0.9 | > 10 | 69.2 ± 3.14 | -3.61 ± 0.98 | – |
| COc1ccc(Nc2nc3ccccc3c3onc(N)c23)cc1 [Compound 23, 4-(4-Methoxyanilino)isoxazolo[4,5-c]quinolin-3-amine] | 8.59 ± 0.29 | > 10 | 59.1 ± 2.03 | -9.67 ± 3.44 | – |

Reference: patent EP3876933B1, “NEUTROPHIL INFLAMMATION INHIBITOR AND USES THEREOF” (Chang Gung University of Science and Technology, priority 2018, dated 2020)
